What was measured:
Assay in all cases: relative viability (nuclei count vs DMSO), 5 days (fraction); higher = more cells survive
[1] = test system: 201T
Method in brief: (§1)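 Lung cancer cell lines in 1536-well plates got either a single drug or a fixed anchor-drug dose together with five library-drug doses (not always all listed) in √10 steps, by pin tool, on the day after seeding. Nuclei were counted after 5 days, and relative viability is the treated-to-vehicle ratio of nuclei counts. Values are medians of duplicate plates.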

[2] = test system: BEN
Method in brief: as §1

[3] = test system: CAL-12T
Method in brief: as §1

[4] = test system: COR-L 105
Method in brief: as §1

[5] = test system: COR-L23
Method in brief: as §1

[6] = test system: EKVX
Method in brief: as §1

[7] = test system: HARA
Method in brief: as §1

[8] = test system: HCC-366
Method in brief: as §1

[9] = test system: LK-2
Method in brief: as §1

[10] = test system: LU99A
Method in brief: as §1

[11] = test system: NCI-H1437
Method in brief: as §1

[12] = test system: NCI-H1650
Method in brief: as §1

[13] = test system: NCI-H1666
Method in brief: as §1

[14] = test system: NCI-H2009
Method in brief: as §1

[15] = test system: NCI-H2023
Method in brief: as §1

[16] = test system: NCI-H2170
Method in brief: as §1

[17] = test system: NCI-H3122
Method in brief: as §1

[18] = test system: NCI-H441
Method in brief: as §1

[19] = test system: NCI-H661
Method in brief: as §1

[20] = test system: NCI-H838
Method in brief: as §1

[21] = test system: PC-14
Method in brief: as §1

[22] = test system: SW 900
Method in brief: as §1

`C[C@@H]1CN(CC(=O)Nc2ccc3c(c2)Cc2cccc(-c4cc(=O)cc(N5CCOCC5)o4)c2S3)C[C@H](C)O1` + Nc1nc2[nH]cc(CCc3ccc(C(=O)N[C@@H](CCC(=O)O)C(=O)O)cc3)c2c(=O)[nH]1 [Pemetrexed] (partner 0.2 µM) gave a relative viability ([1]; first compound 0.04 µM) of 0.329, a relative viability ([1]; first compound 0.1265 µM) of 0.319 and a relative viability ([1]; first compound 0.4 µM) of 0.295. It also gave a relative viability ([1]; first compound 4 µM) of 0.314, a relative viability ([2]; first compound 0.04 µM) of 0.633 and a relative viability ([2]; first compound 0.1265 µM) of 0.713. For the same compound, the relative viability ([2]; first compound 0.4 µM) was 0.749, the relative viability ([2]; first compound 4 µM) was 0.648 and the relative viability ([3]; first compound 0.04 µM) was 1.27. It also gave a relative viability ([3]; first compound 0.1265 µM) of 1.21, a relative viability ([3]; first compound 0.4 µM) of 1.08 and a relative viability ([3]; first compound 4 µM) of 0.428. The relative viability ([4]; first compound 0.04 µM) was 1.15, the relative viability ([4]; first compound 0.1265 µM) was 1.07 and the relative viability ([4]; first compound 0.4 µM) was 1.19. It also gave a relative viability ([4]; first compound 4 µM) of 1.14, a relative viability ([5]; first compound 0.04 µM) of 0.189 and a relative viability ([5]; first compound 0.1265 µM) of 0.204. The relative viability ([5]; first compound 0.4 µM) was 0.203, the relative viability ([5]; first compound 4 µM) was 0.206 and the relative viability ([6]; first compound 0.04 µM) was 0.376. The relative viability ([6]; first compound 0.1265 µM) was 0.42, the relative viability ([6]; first compound 0.4 µM) was 0.31 and the relative viability ([6]; first compound 4 µM) was 0.369. For the same compound, the relative viability ([7]; first compound 0.04 µM) was 0.287, the relative viability ([7]; first compound 0.1265 µM) was 0.24 and the relative viability ([7]; first compound 0.4 µM) was 0.192. For the same compound, the relative viability ([7]; first compound 4 µM) was 0.214, the relative viability ([8]; first compound 0.04 µM) was 0.151 and the relative viability ([8]; first compound 0.1265 µM) was 0.162. The relative viability ([8]; first compound 0.4 µM) was 0.212, the relative viability ([8]; first compound 4 µM) was 0.152 and the relative viability ([9]; first compound 0.04 µM) was 0.218. For the same compound, the relative viability ([9]; first compound 0.1265 µM) was 0.288, the relative viability ([9]; first compound 0.4 µM) was 0.237 and the relative viability ([9]; first compound 4 µM) was 0.217. The relative viability ([10]; first compound 0.04 µM) was 0.184, the relative viability ([10]; first compound 0.1265 µM) was 0.15 and the relative viability ([10]; first compound 0.4 µM) was 0.21. The relative viability ([10]; first compound 4 µM) was 0.222, the relative viability ([11]; first compound 0.04 µM) was 0.402 and the relative viability ([11]; first compound 0.1265 µM) was 0.338. For the same compound, the relative viability ([11]; first compound 0.4 µM) was 0.336, the relative viability ([11]; first compound 4 µM) was 0.335 and the relative viability ([12]; first compound 0.04 µM) was 0.367. For the same compound, the relative viability ([12]; first compound 0.1265 µM) was 0.353, the relative viability ([12]; first compound 0.4 µM) was 0.408 and the relative viability ([12]; first compound 4 µM) was 0.329. It also gave a relative viability ([13]; first compound 0.04 µM) of 0.905, a relative viability ([13]; first compound 0.1265 µM) of 0.837 and a relative viability ([13]; first compound 0.4 µM) of 0.845. The relative viability ([13]; first compound 4 µM) was 0.843, the relative viability ([14]; first compound 0.04 µM) was 1.06 and the relative viability ([14]; first compound 0.1265 µM) was 0.968. The relative viability ([14]; first compound 0.4 µM) was 1.05, the relative viability ([14]; first compound 4 µM) was 0.849 and the relative viability ([15]; first compound 0.04 µM) was 0.263. The relative viability ([15]; first compound 0.1265 µM) was 0.213, the relative viability ([15]; first compound 0.4 µM) was 0.203 and the relative viability ([15]; first compound 4 µM) was 0.199. For the same compound, the relative viability ([16]; first compound 0.04 µM) was 0.266, the relative viability ([16]; first compound 0.1265 µM) was 0.286 and the relative viability ([16]; first compound 0.4 µM) was 0.259. The relative viability ([16]; first compound 4 µM) was 0.26, the relative viability ([17]; first compound 0.04 µM) was 0.192 and the relative viability ([17]; first compound 0.1265 µM) was 0.193. It also gave a relative viability ([17]; first compound 0.4 µM) of 0.192, a relative viability ([17]; first compound 4 µM) of 0.183 and a relative viability ([18]; first compound 0.04 µM) of 0.281. For the same compound, the relative viability ([18]; first compound 0.1265 µM) was 0.263, the relative viability ([18]; first compound 0.4 µM) was 0.247 and the relative viability ([18]; first compound 4 µM) was 0.217. It also gave a relative viability ([19]; first compound 0.04 µM) of 0.969, a relative viability ([19]; first compound 0.1265 µM) of 0.904 and a relative viability ([19]; first compound 0.4 µM) of 0.899. It also gave a relative viability ([19]; first compound 4 µM) of 0.894, a relative viability ([20]; first compound 0.04 µM) of 0.262 and a relative viability ([20]; first compound 0.1265 µM) of 0.244. It also gave a relative viability ([20]; first compound 0.4 µM) of 0.243, a relative viability ([20]; first compound 4 µM) of 0.236 and a relative viability ([21]; first compound 0.04 µM) of 0.119. For the same compound, the relative viability ([21]; first compound 0.1265 µM) was 0.141, the relative viability ([21]; first compound 0.4 µM) was 0.127 and the relative viability ([21]; first compound 4 µM) was 0.116. For the same compound, the relative viability ([22]; first compound 0.04 µM) was 0.469, the relative viability ([22]; first compound 0.1265 µM) was 0.471 and the relative viability ([22]; first compound 0.4 µM) was 0.44. The relative viability ([22]; first compound 4 µM) was 0.453.

`CC(C)Oc1cc(Nc2nc(N[C@@H](C)c3ccc(F)cn3)ncc2Cl)n[nH]1` [AZ23] + Nc1nc2[nH]cc(CCc3ccc(C(=O)N[C@@H](CCC(=O)O)C(=O)O)cc3)c2c(=O)[nH]1 [Pemetrexed] (partner 0.2 µM) was tested, and the relative viability ([1]; first compound 0.01 µM) was 0.251, the relative viability ([1]; first compound 0.03162 µM) was 0.348 and the relative viability ([1]; first compound 0.3162 µM) was 0.336. It also gave a relative viability ([2]; first compound 0.01 µM) of 0.634, a relative viability ([2]; first compound 0.03162 µM) of 0.892 and a relative viability ([2]; first compound 0.3162 µM) of 0.732. It also gave a relative viability ([3]; first compound 0.03162 µM) of 1.24, a relative viability ([3]; first compound 0.3162 µM) of 1.23 and a relative viability ([4]; first compound 0.01 µM) of 0.902. The relative viability ([4]; first compound 0.03162 µM) was 1.24, the relative viability ([4]; first compound 0.3162 µM) was 1.1 and the relative viability ([5]; first compound 0.01 µM) was 0.172. The relative viability ([5]; first compound 0.03162 µM) was 0.193, the relative viability ([5]; first compound 0.3162 µM) was 0.189 and the relative viability ([6]; first compound 0.01 µM) was 0.24. The relative viability ([6]; first compound 0.03162 µM) was 0.5, the relative viability ([6]; first compound 0.3162 µM) was 0.381 and the relative viability ([7]; first compound 0.01 µM) was 0.147. The relative viability ([7]; first compound 0.03162 µM) was 0.309, the relative viability ([7]; first compound 0.3162 µM) was 0.281 and the relative viability ([8]; first compound 0.01 µM) was 0.0994. The relative viability ([8]; first compound 0.03162 µM) was 0.186, the relative viability ([8]; first compound 0.3162 µM) was 0.171 and the relative viability ([9]; first compound 0.03162 µM) was 0.36. The relative viability ([9]; first compound 0.3162 µM) was 0.263, the relative viability ([10]; first compound 0.01 µM) was 0.146 and the relative viability ([10]; first compound 0.03162 µM) was 0.199. For the same compound, the relative viability ([10]; first compound 0.3162 µM) was 0.209, the relative viability ([11]; first compound 0.01 µM) was 0.283 and the relative viability ([11]; first compound 0.03162 µM) was 0.345. For the same compound, the relative viability ([11]; first compound 0.3162 µM) was 0.331, the relative viability ([12]; first compound 0.01 µM) was 0.295 and the relative viability ([12]; first compound 0.03162 µM) was 0.406. It also gave a relative viability ([12]; first compound 0.3162 µM) of 0.359, a relative viability ([13]; first compound 0.01 µM) of 0.822 and a relative viability ([13]; first compound 0.03162 µM) of 0.837. For the same compound, the relative viability ([13]; first compound 0.3162 µM) was 0.771, the relative viability ([14]; first compound 0.01 µM) was 1.16 and the relative viability ([14]; first compound 0.03162 µM) was 1.1. The relative viability ([14]; first compound 0.3162 µM) was 1.02, the relative viability ([15]; first compound 0.03162 µM) was 0.268 and the relative viability ([15]; first compound 0.3162 µM) was 0.219. The relative viability ([16]; first compound 0.01 µM) was 0.261, the relative viability ([16]; first compound 0.03162 µM) was 0.265 and the relative viability ([16]; first compound 0.3162 µM) was 0.256. For the same compound, the relative viability ([17]; first compound 0.01 µM) was 0.151, the relative viability ([17]; first compound 0.03162 µM) was 0.199 and the relative viability ([17]; first compound 0.3162 µM) was 0.195. It also gave a relative viability ([18]; first compound 0.01 µM) of 0.262, a relative viability ([18]; first compound 0.03162 µM) of 0.242 and a relative viability ([18]; first compound 0.3162 µM) of 0.267. It also gave a relative viability ([19]; first compound 0.01 µM) of 0.864, a relative viability ([19]; first compound 0.03162 µM) of 0.925 and a relative viability ([19]; first compound 0.3162 µM) of 0.927. It also gave a relative viability ([20]; first compound 0.01 µM) of 0.207, a relative viability ([20]; first compound 0.03162 µM) of 0.27 and a relative viability ([20]; first compound 0.3162 µM) of 0.243. The relative viability ([21]; first compound 0.01 µM) was 0.127, the relative viability ([21]; first compound 0.03162 µM) was 0.136 and the relative viability ([21]; first compound 0.3162 µM) was 0.147. It also gave a relative viability ([22]; first compound 0.01 µM) of 0.491 and a relative viability ([22]; first compound 0.3162 µM) of 0.514.

Reference: the supplement of paper PMC10307832
